The numbers were not newly measured in paper PMC12658903 (RSC Medicinal Chemistry, 2025), which cites them from elsewhere.

The subject of one data set is TMPRSS2. As to conditions: read-out: IC50 (μM) TMPRSS2; cited from earlier work.
For a further data set, the system named is HAT. As to conditions: read-out: IC50 (μM) HAT; cited from earlier work.
A further data set has as its system furin. The conditions noted are these: read-out: IC50 furin; cited from earlier work.

Consider `CN(C)C(=O)COC(=O)Cc1ccc(OC(=O)c2ccc(NC(=N)N)cc2)cc1` [Camostat, camostat], for which the IC50 (commonly the midpoint of a concentration-inhibition curve) was […] in the data set with TMPRSS2 and 0.151 µM with HAT.
`N=C(N)c1ccc(/N=N/Nc2ccc(C(=N)N)cc2)cc1` [diminazen]: the IC50 in the data set on furin was 13.2 µM.
